Experimental data as given in US20220402950A1, “SUBSTITUTED BENZIMIDAZOLES AS PAD4 INHIBITORS” (BRISTOL-MYERS SQUIBB COMPANY, priority 2018, published 2022).
Like-named read-outs stand apart in the source and are kept apart here.

Target: human PAD4 (hPAD4) (Homo sapiens, UniProt Q9UM07)
Experiment: RFMS Human PAD4 Functional Assay
Assay type: biochemical
Settings: 5 nM hPAD4, 250 μM BAEE
Summary of the method: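 RapidFire ESI-MS quantification, normalised to a modified-citrulline internal standard, after phenyl glyoxal (final 4 mM) derivatisation of the TCA-quenched reaction. The enzyme (10 nM) sat 30 min with compound (up to 50 μM final) before 500 μM BAEE (as added) started a 90 min, 37 °C reaction. Buffer: HEPES pH 7.5, 50 μM calcium, 5 μM TPEN.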

[1] = hPAD4 RFMS IC50, human PAD4, rapid-fire mass spectrum (RFMS) assay
[2] = human PAD4, rapid-fire mass spectrum (RFMS) assay, read-out: hPAD4 RFMS IC50

Chain of human PAD4 (hPAD4) (Q9UM07 whole entry): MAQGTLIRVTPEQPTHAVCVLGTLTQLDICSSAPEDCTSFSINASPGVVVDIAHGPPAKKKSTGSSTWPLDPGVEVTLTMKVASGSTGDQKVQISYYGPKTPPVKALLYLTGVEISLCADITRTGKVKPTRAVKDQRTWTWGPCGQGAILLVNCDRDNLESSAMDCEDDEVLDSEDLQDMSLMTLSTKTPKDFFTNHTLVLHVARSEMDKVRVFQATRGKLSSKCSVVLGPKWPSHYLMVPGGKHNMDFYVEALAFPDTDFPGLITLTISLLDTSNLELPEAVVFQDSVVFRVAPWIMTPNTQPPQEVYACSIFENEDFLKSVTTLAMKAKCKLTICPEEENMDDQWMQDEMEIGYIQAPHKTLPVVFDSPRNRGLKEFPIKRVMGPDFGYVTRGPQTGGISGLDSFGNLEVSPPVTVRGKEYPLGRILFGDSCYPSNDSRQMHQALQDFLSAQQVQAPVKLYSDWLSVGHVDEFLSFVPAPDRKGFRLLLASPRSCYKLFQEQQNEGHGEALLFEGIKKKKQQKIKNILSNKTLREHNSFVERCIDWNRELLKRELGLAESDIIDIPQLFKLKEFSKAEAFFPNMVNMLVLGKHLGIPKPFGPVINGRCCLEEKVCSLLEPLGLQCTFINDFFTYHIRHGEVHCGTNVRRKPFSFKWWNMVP

| Compound | IC50 [1] | IC50 [2] |
| --- | --- | --- |
| COc1cc(C(=O)N2C[C@H]3CC[C@@H]2[C@@H]3N)cc2nc(-c3cc4cccc(C)c4n3CC3CC3)n(C)c12 [Example 147, ((1R,4R,7R)-7-amino-2-azabicyclo[2.2.1]heptan-2-yl)(2-(1-(cyclopropylmethyl)-7-methyl-1H-indol-2-yl)-7-methoxy-1-methyl-1H-benzo[d]imidazol-5-yl)methanone] | 0.079 µM | – |
| COc1cc(C(=O)N2C[C@H]3CC[C@@H]2[C@@H]3N)cc2nc(-c3cc4cccc(OC)c4n3CC3CC3)n(C)c12 [Example 148, ((1R,4R,7R)-7-amino-2-azabicyclo[2.2.1]heptan-2-yl)(2-(1-(cyclopropylmethyl)-7-methoxy-1H-indol-2-yl)-7-methoxy-1-methyl-1H-benzo[d]imidazol-5-yl)methanone] | 0.061 µM | – |
| COc1cc(C(=O)N2C[C@H]3CC[C@@H]2[C@@H]3N)cc2nc(-c3cc4cccc(-c5cnc(C#N)nc5)c4n3CC3CC3(F)F)n(C)c12 (stereo partly drawn) [Example 149, 5-(2-(5-((1R,4R,7R)-7-amino-2-azabicyclo[2.2.1]heptane-2-carbonyl)-7-methoxy-1-methyl-1H-benzo[d]imidazol-2-yl)-1-((2,2-difluorocyclopropyl)meth-yl)-1H-indol-7-yl)pyrimidine-2-carbonitrile] | 0.168 µM | – |
| COc1cc(C(=O)N2C[C@H]3CC[C@@H]2[C@@H]3N)cc2nc(-c3cc4cccc(-c5cn[nH]c5)c4n3CC3CC3(F)F)n(C)c12 (stereo partly drawn) [Example 150, ((1R,4R,7R)-7-amino-2-azabicyclo[2.2.1]heptan-2-yl)(2-(1-((2,2-difluorocyclopropyl)meth-yl)-7-(1H-pyrazol-4-yl)-1H-indol-2-yl)-7-methoxy-1-methyl-1H-benzo[d]imidazol-5-yl)methanone] | 0.046 µM | – |
| COc1cc(C(=O)N2C[C@H]3CC[C@@H]2[C@@H]3N)cc2nc(-c3cc4cccc(-c5cn[nH]c5)c4n3CC3CC3(Cl)Cl)n(C)c12 (stereo partly drawn) [Example 151, ((1R,4R,7R)-7-amino-2-azabicyclo[2.2.1]heptan-2-yl)(2-(1-((2,2-dichlorocyclopropyl)meth-yl)-7-(1H-pyrazol-4-yl)-1H-indol-2-yl)-7-methoxy-1-methyl-1H-benzo[d]imidazol-5-yl)methanone] | 0.104 µM | – |
| COc1cc(C(=O)N2C[C@H]3CC[C@@H]2[C@@H]3N)cc2nc(-c3cc4cccc(-c5cc[nH]n5)c4n3CC3CC3(Cl)Cl)n(C)c12 (stereo partly drawn) [Example 152, ((1R,4R,7R)-7-amino-2-azabicyclo[2.2.1]heptan-2-yl)(2-(1-((2,2-dichlorocyclopropyl)meth-yl)-7-(1H-pyrazol-3-yl)-1H-indol-2-yl)-7-methoxy-1-methyl-1H-benzo[d]imidazol-5-yl)methanone] | 0.127 µM | – |
| COc1cc(C(=O)N2C[C@H]3CC[C@@H]2[C@@H]3N)cc2nc(-c3cc4cc(C)ccc4n3CC3CC3)n(C)c12 [Example 153, ((1R,4R,7R)-7-amino-2-azabicyclo[2.2.1]heptan-2-yl)(2-(1-(cyclopropylmethyl)-5-methyl-1H-indol-2-yl)-7-methoxy-1-methyl-1H-benzo[d]imidazol-5-yl)methanone] | – | 0.135 µM |
| COc1cc(C(=O)N2C[C@H]3CC[C@@H]2[C@@H]3N)cc2nc(-c3cc4cc(C)cc(-c5cn[nH]c5)c4n3CC3CC3)n(C)c12 [Example 154, ((1R,4R,7R)-7-amino-2-azabicyclo[2.2.1]heptan-2-yl)(2-(1-(cyclopropylmethyl)-5-methyl-7-(1H-pyrazol-4-yl)-1H-indol-2-yl)-7-methoxy-1-methyl-1H-benzo[d]imidazol-5-yl)methanone] | 0.043 µM | – |
| COc1cc(C(=O)N2C[C@H]3CC[C@@H]2[C@@H]3N)cc2nc(-c3cc4cccc(-c5ccccc5C#N)c4n3CC3CC3C)n(C)c12 (stereo partly drawn) [Example 155, 2-(2-(5-((1R,4R,7R)-7-amino-2-azabicyclo[2.2.1]heptane-2-carbonyl)-7-methoxy-1-methyl-1H-benzo[d]imidazol-2-yl)-1-((2-methylcyclopropyl)meth-yl)-1H-indol-7-yl)benzonitrile] | 0.171 µM | – |
| COc1cc(C(=O)N2C[C@H]3CC[C@@H]2[C@@H]3N)cc2nc(-c3cc4cccc(-c5cn[nH]c5)c4n3CC3CC3C)n(C)c12 (stereo partly drawn) [Example 156, ((1R,4R,7R)-7-amino-2-azabicyclo[2.2.1]heptan-2-yl)(7-methoxy-1-methyl-2-(1-((2-methylcyclopropyl)meth-yl)-7-(1H-pyrazol-4-yl)-1H-indol-2-yl)-1H-benzo[d]imidazol-5-yl)methanone] | 0.079 µM | – |

Results, then the compound that gave them:

| IC50 [1] | IC50 [2] | Compound |
| --- | --- | --- |
| 0.08 µM | – | COc1cc(C(=O)N2C[C@H]3CC[C@@H]2[C@@H]3N)cc2nc(-c3cc4cccc(-c5cc[nH]n5)c4n3CC3CC3C)n(C)c12 (stereo partly drawn) [Example 157, ((1R,4R,7R)-7-amino-2-azabicyclo[2.2.1]heptan-2-yl)(7-methoxy-1-methyl-2-(1-((2-methylcyclopropyl)meth-yl)-7-(1H-pyrazol-3-yl)-1H-indol-2-yl)-1H-benzo[d]imidazol-5-yl)methanone] |
| – | 0.069 µM | COc1cc(C(=O)N2C[C@H]3CC[C@@H]2[C@@H]3N)cc2nc(-c3cc4cccc(NC5CCNCC5)c4n3CC3CC3)n(C)c12 [Example 158, ((1R,4R,7R)-7-amino-2-azabicyclo[2.2.1]heptan-2-yl)(2-(1-(cyclopropylmethyl)-7-(piperidin-4-ylamino)-1H-indol-2-yl)-7-methoxy-1-methyl-1H-benzo[d]imidazol-5-yl)methanone] |
| 0.15 µM | – | COc1cc(C(=O)N2CC3CCC2C3N)cc2nc(-c3cc4cccc(NCC5CNC5)c4n3CC3CC3)n(C)c12 (stereo not shown) [Example 159, (7-amino-2-azabicyclo[2.2.1]heptan-2-yl)(2-(7-((azetidin-3-ylmethyl)amino)-1-(cyclopropylmethyl)-1H-indol-2-yl)-7-methoxy-1-methyl-1H-benzo[d]imidazol-5-yl)methanone] |
| 0.11 µM | – | COc1cc(C(=O)N2CC3CCC2[C@@H]3N)cc2nc(-c3cc4cccc(Nc5ccnc(C(N)=O)n5)c4n3CC3CC3)n(C)c12 (stereo partly drawn) [Example 160, 4-((2-(5-((7R)-7-amino-2-azabicyclo[2.2.1]heptane-2-carbonyl)-7-methoxy-1-methyl-1H-benzo[d]imidazol-2-yl)-1-(cyclopropylmethyl)-1H-indol-7-yl)amino)pyrimidine-2-carboxamide] |
| 0.103 µM | – | COc1cc(C(=O)N2CC3CCC2[C@@H]3N)cc2nc(-c3cc4cccc(Nc5cc(C)nc(C)c5)c4n3CC3CC3)n(C)c12 (stereo partly drawn) [Example 161, ((7R)-7-amino-2-azabicyclo[2.2.1]heptan-2-yl)(2-(1-(cyclopropylmethyl)-7-((2,6-dimethylpyridin-4-yl)amino)-1H-indol-2-yl)-7-methoxy-1-methyl-1H-benzo[d]imidazol-5-yl)methanone] |
| 0.098 µM | – | CCOC(=O)c1ccc(Nc2cccc3cc(-c4nc5cc(C(=O)N6CC7CCC6[C@@H]7N)cc(OC)c5n4C)n(CC4CC4)c23)cc1 (stereo partly drawn) [Example 162, ethyl 4-((2-(5-((7R)-7-amino-2-azabicyclo[2.2.1]heptane-2-carbonyl)-7-methoxy-1-methyl-1H-benzo[d]imidazol-2-yl)-1-(cyclopropylmethyl)-1H-indol-7-yl)amino)benzoate] |
| 0.058 µM | – | COc1cc(C(=O)N2CC3CCC2[C@@H]3N)cc2nc(-c3cc4cccc(Nc5ccnc(C)c5)c4n3CC3CC3)n(C)c12 (stereo partly drawn) [Example 163, ((7R)-7-amino-2-azabicyclo[2.2.1]heptan-2-yl)(2-(1-(cyclopropylmethyl)-7-((2-methylpyridin-4-yl)amino)-1H-indol-2-yl)-7-methoxy-1-methyl-1H-benzo[d]imidazol-5-yl)methanone] |
| 0.153 µM | – | COc1cc(C(=O)N2CC3CCC2[C@@H]3N)cc2nc(-c3cc4cccc(Nc5ccc(CO)cc5)c4n3CC3CC3)n(C)c12 (stereo partly drawn) [Example 164, ((7R)-7-amino-2-azabicyclo[2.2.1]heptan-2-yl)(2-(1-(cyclopropylmethyl)-7-((4-(hydroxymethyl)phenyl)a-mino)-1H-indol-2-yl)-7-methoxy-1-methyl-1H-benzo[d]imidazol-5-yl)methanone] |
| 0.075 µM | – | COc1cc(C(=O)N2C[C@H]3CC[C@@H]2[C@@H]3N)cc2nc(-c3cc4cccc(Nc5cnn(CC(F)(F)F)c5)c4n3CC3CC3)n(C)c12 [Example 165, ((1R,4R,7R)-7-amino-2-azabicyclo[2.2.1]heptan-2-yl)(2-(1-(cyclopropylmethyl)-7-((1-(2,2,2-trifluoroethyl)-1H-pyrazol-4-yl)amino)-1H-indol-2-yl)-7-methoxy-1-methyl-1H-benzo[d]imidazol-5-yl)methanone] |
| 0.171 µM | – | COc1cc(C(=O)N2CC3CCC2C3N)cc2nc(-c3cc4cccc(Nc5ccccc5P(C)(C)=O)c4n3CC3CC3)n(C)c12 (stereo not shown) [Example 166, (7-amino-2-azabicyclo[2.2.1]heptan-2-yl)(2-(1-(cyclopropylmethyl)-7-((2-(dimethylphosphoryl)phe-nyl)amino)-1H-indol-2-yl)-7-methoxy-1-methyl-1H-benzo[d]imidazol-5-yl)methanone] |
| 0.138 µM | – | COc1cc(C(=O)N2CC3CCC2C3N)cc2nc(-c3cc4cccc(Nc5cnc(C#N)nc5)c4n3CC3CC3)n(C)c12 (stereo not shown) [Example 167, 5-((2-(4-(7-amino-2-azabicyclo[2.2.1]heptane-2-carbonyl)-7-methoxy-1-methyl-1H-benzo[d]imidazol-2-yl)-1-(cyclopropyllmethyl)-1H-indol-7-yl)amino)pyrimidine-2-carbonitrile] |
| 0.198 µM | – | COc1cc(C(=O)N2C[C@H]3CC[C@@H]2[C@@H]3N)cc2nc(-c3cc4cccc(NCCC(C)(C)O)c4n3CC3CC3)n(C)c12 [Example 169, ((1R,4R,7R)-7-amino-2-azabicyclo[2.2.1]heptan-2-yl)(2-(1-(cyclopropylmethyl)-7-((3-hydroxy-3-methylbutyl)amino)-1H-indol-2-yl)-7-methoxy-1-methyl-1H-benzo[d]imidazol-5-yl)methanone] |
